Experimental data from patent publication US20260109707A1, “HETEROBIFUNCTIONAL COMPOUNDS AND METHODS OF TREATING DISEASE” (Halda Therapeutics OpCo. Inc., priority 2022, published 2026).
Read-outs that look alike come from different tables or passages of the source.

Legend:
[1] = test system: T-Rex 293 cell line SC3 cells having increased expression of androgen receptor protein due to exposure to doxycycline; assay: Cellular growth inhibition assay, T-Rex 293 SC3 cells with doxycycline (CellTiter-Glo, 72 hours); format: cell-based; settings: T-Rex 293 SC3 cells with increased androgen receptor expression due to doxycycline (10 ng/mL)
How it was run: (§1)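 Doxycycline (10 ng/mL) was either included or omitted to toggle wild-type androgen receptor expression in SC3 cells, a T-Rex 293 clone, grown in stripped-serum, phenol red-free medium. After 72 hours with compound, viable cells were quantified by CellTiter-Glo 2.0.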

T47D cells = assay: Cellular growth inhibition assay for T47D cells (CellTiter-Glo, 72 hours); format: cell-based, human; settings: 72 hours treatment
How it was run: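 Growth inhibition as GI50, fitted with four parameters to CellTiter-Glo luminescence after 72 h of compound exposure (0.5% DMSO). Cells were T47D, grown in insulin-supplemented (0.2 units/mL) DMEM with 10% FBS and treated one day post-seeding.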

[2] = test system: T-Rex 293 cell line SC3 cells lacking increased expression of androgen receptor protein; assay: Cellular growth inhibition assay, T-Rex 293 SC3 cells without doxycycline (CellTiter-Glo, 72 hours); format: cell-based; settings: T-Rex 293 cell line SC3 cells not exposed to doxycycline (lacking increased androgen receptor expression)
How it was run: as §1

VCaP cells = assay: Cellular growth inhibition assay for VCaP cells (CellTiter-Glo, 72 hours); format: cell-based, human
How it was run: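 Luminescent viability signal after 72 h of compound exposure gave GI50 values by four-parameter nonlinear regression. Compounds were added in 0.5% DMSO to cells plated 24 h earlier at 5000/well in DMEM containing 10% FBS.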

Row | Compound | GI50 ([1]; 72 h) [µM] | GI50 (T47D cells; Homo sapiens, T47D, 72 h) [µM] | GI50 ([2]; 72 h) [µM] | GI50 (VCaP cells; Homo sapiens, VCaP, 72 h) [µM] | GI50 [1] [µM] | GI50 (T47D cells) [µM] | GI50 [2] [µM] | GI50 (VCaP cells) [µM]
1 | Cc1sc2c(c1C)C(c1ccc(N3CCC[C@H](C(=O)N4CCC[C@H](c5ccc(C(=O)N[C@H]6CC[C@H](Oc7ccc(C#N)c(Cl)c7)CC6)nn5)C4)C3)cc1)=N[C@@H](Cc1ncco1)c1nnc(C)n1-2 [I-301] | < 0.5 | < 0.5 | < 0.5 | < 0.5 |  |  |  | 
2 | Cc1sc2c(c1C)C(c1ccc(N3CC4(CCN(c5ccc(C(=O)NC6CCC(Oc7ccc(C#N)c(Cl)c7)CC6)nn5)CC4)C3)cc1)=N[C@@H](Cc1ncco1)c1nnc(C)n1-2 (stereo partly drawn) [I-132, N-[4-(3-chloro-4-cyano-phenoxy)cyclohexyl]-6-[2-[4-[(9S)-4,5,13-trimethyl-9-(oxazol-2-ylmethyl)-3-thia-1,8,11,12-tetrazatricyclo[8.3.0.02,6]trideca-2(6),4,7,10,12-pentaen-7-yl]phenyl]-2,7-diazaspiro[3.5]nonan-7-yl]pyridazine-3-carboxamide] | < 0.5 | < 0.5 | < 0.5 | < 0.5 |  |  |  | 
3 | Cc1sc2c(c1C)C(c1ccc(O[C@H]3C[C@@]4(CCCN(c5ccc(C(=O)N[C@H]6CC[C@H](Oc7ccc(C#N)c(Cl)c7)CC6)nn5)C4)C3)cc1)=N[C@@H](Cc1ncco1)c1nnc(C)n1-2 [I-92] | < 0.5 | 0.5 to 1.5 | < 0.5 | < 0.5 |  |  |  | 
4 | Cc1sc2c(c1C)C(c1ccc(CCC[C@@H]3CCCN(c4ccc(C(=O)N[C@H]5CC[C@H](Oc6ccc(C#N)c(Cl)c6)CC5)nn4)C3)cc1)=N[C@@H](Cc1ncco1)c1nnc(C)n1-2 [I-276] | < 0.5 | < 0.5 | < 0.5 | < 0.5 |  |  |  | 
5 | Cc1sc2c(c1C)C(c1ccc(C#C[C@H]3C[C@@]4(CCCN(c5ccc(C(=O)N[C@H]6CC[C@H](Oc7ccc(C#N)c(Cl)c7)CC6)nn5)C4)C3)cc1)=N[C@@H](C)c1nnc(C)n1-2 [I-336] | < 0.5 | < 0.5 | < 0.5 | < 0.5 |  |  |  | 
6 | Cc1sc2c(c1C)C(c1ccc(CNC(=O)N3CCC(c4ccc(C(=O)N[C@H]5CC[C@H](Oc6ccc(C#N)c(Cl)c6)CC5)nn4)CC3)cc1)=N[C@@H](Cc1ncco1)c1nnc(C)n1-2 [I-228] | < 0.5 | < 0.5 | > 3 | < 0.5 |  |  |  | 
7 | Cc1sc2c(c1C)C(c1ccc(C(=O)N3CCC(N(C)c4ccc(C(=O)N[C@H]5CC[C@H](Oc6ccc(C#N)c(Cl)c6)CC5)nn4)CC3)cc1)=N[C@@H](Cc1ncco1)c1nnc(C)n1-2 [I-306] | > 3 | 1.5 to 3 | > 3 | > 3 |  |  |  | 
8 | Cc1sc2c(c1C)C(c1ccc(C[C@H]3CCCN(c4ccc(C(=O)N[C@H]5CC[C@H](Oc6ccc(C#N)c(Cl)c6)CC5)nn4)C3)cc1)=N[C@@H](Cc1ncco1)c1nnc(C)n1-2 [I-253] | < 0.5 | < 0.5 | < 0.5 | < 0.5 |  |  |  | 
9 | Cc1sc2c(c1C)C(c1ccc(N3CCC4(CCN(c5ccc(C(=O)N[C@H]6CC[C@H](Oc7ccc(C#N)c(Cl)c7)CC6)nn5)CC4)C3)cc1)=N[C@@H](Cc1ncco1)c1nnc(C)n1-2 [I-388] | < 0.5 | < 0.5 | < 0.5 | < 0.5 |  |  |  | 
10 | Cc1sc2c(c1C)C(c1ccc(N(C)CC(=O)NCc3ccc(C(=O)N[C@H]4CC[C@H](Oc5ccc(C#N)c(Cl)c5)CC4)nn3)cc1)=N[C@H](Cc1ncco1)c1nnc(C)n1-2 [I-333] | > 3 | 0.5 to 1.5 | > 3 | < 0.5 |  |  |  | 
11 | Cc1sc2c(c1C)C(c1ccc(O[C@@H]3CC[C@]4(CCCN(c5ccc(C(=O)N[C@H]6CC[C@H](Oc7ccc(C#N)c(Cl)c7)CC6)nn5)C4)C3)cc1)=N[C@@H](Cc1ncco1)c1nnc(C)n1-2 [I-98] | < 0.5 | < 0.5 | < 0.5 | < 0.5 |  |  |  | 
12 | Cc1sc2c(c1C)C(c1ccc(N(C)CC(=O)N3CCC(c4ccc(C(=O)N[C@H]5CC[C@H](Oc6ccc(C#N)c(Cl)c6)CC5)nn4)CC3)cc1)=N[C@H](Cc1ncco1)c1nnc(C)n1-2 [I-313] | < 0.5 | 0.5 to 1.5 | > 3 | < 0.5 |  |  |  | 
13 | Cc1sc2c(c1C)C(c1ccc(N3CCC4(CC3)CCN(c3ccc(C(=O)N[C@H]5CC[C@H](Oc6ccc(C#N)c(Cl)c6)CC5)nn3)C4)cc1)=N[C@@H](C)c1nnc(C)n1-2 [I-430] |  |  |  |  | < 0.5 | < 0.5 | < 0.5 | < 0.5
14 | Cc1sc2c(c1C)C(c1ccc(OC3CC4(CCN(c5ccc(C(=O)N[C@H]6CC[C@H](Oc7ccc(C#N)c(Cl)c7)CC6)nn5)CC4)C3)cc1)=N[C@@H](Cc1ncco1)c1nnc(C)n1-2 [I-79] | < 0.5 | < 0.5 | < 0.5 | < 0.5 |  |  |  | 
15 | Cc1sc2c(c1C)C(c1ccc(-c3coc(C4CCN(c5ccc(C(=O)N[C@H]6CC[C@H](Oc7ccc(C#N)c(Cl)c7)CC6)nn5)CC4)n3)cc1)=NC(Cc1ncco1)c1nnc(C)n1-2 (stereo partly drawn) [I-442] |  |  |  |  | < 0.5 | < 0.5 | < 0.5 | < 0.5
